Results from article PMC2120067 (The Journal of Cell Biology, 1994).
Values belong to the substance of their own block, whether it stands above or below them.

Assays:
[1] = tested on: angiogenic bovine aortic endothelial (BAE) cells; experiment: Quantitation of endothelial cord formation; type: cell-based
[2] = tested on: new vessel growth in vivo; conditions: ref Raju et al., 1982; cited from earlier work
[3] = Copper-binding study by electrospray mass spectrometry; conditions: 10 µM KGHK and KGRK mixed with 8 µM Cu2+, electrospray MS
[4] = Spectroscopic analysis of copper binding; conditions: saturable; not displaced with 100-fold excesses of Na, K, Ca, or Mg ions; not shown
[5] = Magnesium-binding control by electrospray mass spectrometry; conditions: 20 µM KGHK + 50 µM MgSO4 in 20 mM NH4HCO3 (pH 7.5), electrospray MS
[6] = tested on: chicken chorioallantoic membrane (CAM); experiment: CAM angiogenesis assay; type: in vivo; conditions: methylcellulose disk on chick CAM

Substance: bovine serum albumin: control protein [reference compound]
Stimulation of endothelial cord formation ([1]; bovine serum albumin, concentration not given): no stimulatory effect

Substance: N-gly- cyl-L-histidyl-L-lysine-OH [GHK]
Stimulation of new vessel growth in vivo [2]: little effect | Stimulation of endothelial cord formation, peptide pretreated with CuSO4 ([1]; pretreatment of peptide with CuSO4, not shown): significant angiogenic stimulation

Change of absorbance on addition of copper ions [4]: increase in absorbance at 580 nm | Formation of 1:1 complex with magnesium [5]: did not form
Substance: KGHK [N-lysyl-L-glycyl-L-histidyl-L-lysine- OH]
Direct competition for limiting copper ions [3]: all copper ions were sequestered in a KGHK:Cu complex | Lowest application eliciting angiogenic activity in the CAM [6]: 50 ng/disk
